In patent US12180187B2, “1-phenyl-5-azinylpyrazolyl-3-oxyalkyl acids and their use for controlling unwanted plant growth” (BAYER AKTIENGESELLSCHAFT, priority 2019, dated 2024):

Legend:
AMARE [1] = assay: Pre-emergence action against AMARE, 1280 g/ha; type: in vivo, Amaranthus retroflexus; conditions: scored visually after about 3 weeks vs untreated controls (100% = plants have died)
Procedure, shortened: (§1)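 Weed seeds sown in sandy loam in pots, covered with soil; compound as WP or EC applied to soil surface as aqueous suspension/emulsion with 0.5% additive at 600 L/ha water. Greenhouse, good growth conditions; visual % damage vs untreated controls after about 3 weeks (100% = plants dead, 0% = like control).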

MATIN [2] = assay: Post-emergence action against MATIN, 1.28 kg/ha; type: in vivo, Tripleurospermum inodorum (Matricaria inodora); conditions: dosage 1280 g/ha, visual rating about 3 weeks after treatment vs untreated controls (100% = plants died)
Procedure, shortened: (§2)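 Percent activity was scored visually ~3 wk post-spray relative to untreated plants. Treatment was post-emergence at the one-leaf stage using WP/EC in water with 0.5% additive (600 L/ha).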

STEME [3] = assay: Post-emergence action against STEME, 1.28 kg/ha; type: in vivo, Stellaria media; conditions: dosage 1280 g/ha, visual rating about 3 weeks after treatment vs untreated controls (100% = plants died)
Procedure, shortened: as §2

VERPE [4] = assay: Pre-emergence action against VERPE, 1280 g/ha; type: in vivo, Veronica persica; conditions: scored visually after about 3 weeks vs untreated controls (100% = plants have died)
Procedure, shortened: as §1

ALOMY [5] = assay: Post-emergence action against ALOMY, 1.28 kg/ha; type: in vivo, Alopecurus myosuroides; conditions: dosage 1280 g/ha, visual rating about 3 weeks after treatment vs untreated controls
Procedure, shortened: as §2

LOLRI [6] = assay: Pre-emergence action against LOLRI, 1280 g/ha; type: in vivo, Lolium rigidum; conditions: visual scoring after about 3 weeks vs untreated controls, 100% = plants have died, 0% = like control plants
Procedure, shortened: as §1

ECHCG [7] = assay: Post-emergence action against ECHCG, 1.28 kg/ha; type: in vivo, Echinochloa crus-galli; conditions: dosage 1280 g/ha, visual rating about 3 weeks after treatment vs untreated controls
Procedure, shortened: as §2

DIGSA [8] = assay: Pre-emergence action against DIGSA, 1280 g/ha; type: in vivo, Digitaria sanguinalis; conditions: visual scoring after about 3 weeks vs untreated controls, 100% = plants have died, 0% = like control plants
Procedure, shortened: as §1

ALOMY [9] = assay: Pre-emergence action against ALOMY, 1280 g/ha; type: in vivo, Alopecurus myosuroides; conditions: visual scoring after about 3 weeks vs untreated controls, 100% = plants have died, 0% = like control plants
Procedure, shortened: as §1

ABUTH = assay: Post-emergence action against ABUTH, 1.28 kg/ha; type: in vivo, Abutilon theophrasti; conditions: dosage 1280 g/ha, visual rating about 3 weeks after treatment vs untreated controls (100% = plants died)
Procedure, shortened: as §2

SETVI [10] = assay: Pre-emergence action against SETVI, 1280 g/ha; type: in vivo, Setaria viridis; conditions: visual scoring after about 3 weeks vs untreated controls, 100% = plants have died, 0% = like control plants
Procedure, shortened: as §1

AMARE [11] = assay: Post-emergence action against AMARE, 1.28 kg/ha; type: in vivo, Amaranthus retroflexus; conditions: dosage 1280 g/ha, visual rating about 3 weeks after treatment vs untreated controls (100% = plants died)
Procedure, shortened: as §2

DIGSA [12] = assay: Post-emergence action against DIGSA, 1.28 kg/ha; type: in vivo, Digitaria sanguinalis; conditions: dosage 1280 g/ha, visual rating about 3 weeks after treatment vs untreated controls
Procedure, shortened: as §2

POAAN [13] = assay: Post-emergence action against POAAN, 1.28 kg/ha; type: in vivo, Poa annua; conditions: dosage 1280 g/ha, visual rating about 3 weeks after treatment vs untreated controls
Procedure, shortened: as §2

ECHCG [14] = assay: Pre-emergence action against ECHCG, 1280 g/ha; type: in vivo, Echinochloa crus-galli; conditions: visual scoring after about 3 weeks vs untreated controls, 100% = plants have died, 0% = like control plants
Procedure, shortened: as §1

MATIN [15] = assay: Pre-emergence action against MATIN, 1280 g/ha; type: in vivo, Tripleurospermum inodorum (Matricaria inodora); conditions: scored visually after about 3 weeks vs untreated controls (100% = plants have died)
Procedure, shortened: as §1

STEME [16] = assay: Pre-emergence action against STEME, 1280 g/ha; type: in vivo, Stellaria media; conditions: scored visually after about 3 weeks vs untreated controls (100% = plants have died)
Procedure, shortened: as §1

VERPE [17] = assay: Post-emergence action against VERPE, 1.28 kg/ha; type: in vivo, Veronica persica; conditions: dosage 1280 g/ha, visual rating about 3 weeks after treatment vs untreated controls (100% = plants died)
Procedure, shortened: as §2

LOLRI [18] = assay: Post-emergence action against LOLRI, 1.28 kg/ha; type: in vivo, Lolium rigidum; conditions: dosage 1280 g/ha, visual rating about 3 weeks after treatment vs untreated controls
Experimental: (§3) • a) Seeds of mono- and dicotyledonous weed plants are placed in plastic pots in sandy loam soil (twin sowing with one species each of mono- or dicotyledonous weed plants per pot), covered with soil and cultivated in a greenhouse under controlled growth conditions. 2 to 3 weeks after sowing, the test plants are treated at the one-leaf stage. The compounds of the invention, formulated in the form of wettable powders (WP) or as emulsion concentrates (EC), are applied to the green parts of the plants as aqueous suspension or emulsion with addition of 0.5% additive at a water application rate equivalent to 600 litres per hectare. After the test plants have been kept in the greenhouse under optimum growth conditions for about 3 weeks, the activity of the preparations is rated visually in comparison to untreated controls. For example, 100% activity=the plants have died, 0% activity=like control plants. As shown by the results, compounds of the general formula (I) of the invention, in post-emergence treatment, have very good herbicidal efficacy (90% to 100% herbicidal action) against harmful plants such as Abutilon theophrasti, Digitaria sanguinalis, Echinochloa crus-galli, Matricaria inodora, Poa annua, at an application rate of 1.28 kg of active substance per hectare.

SETVI [19] = assay: Post-emergence action against SETVI, 1.28 kg/ha; type: in vivo, Setaria viridis; conditions: dosage 1280 g/ha, visual rating about 3 weeks after treatment vs untreated controls
Experimental: as §3

POAAN [20] = assay: Pre-emergence action against POAAN, 1280 g/ha; type: in vivo, Poa annua; conditions: visual scoring after about 3 weeks vs untreated controls, 100% = plants have died, 0% = like control plants
Procedure, shortened: as §1

Structure (SMILES)	Pre-emergence action against AMARE (AMARE [1])	Post-emergence action against MATIN (MATIN [2])	Post-emergence action against STEME (STEME [3])	Pre-emergence action against VERPE (VERPE [4])	Post-emergence action against ALOMY (ALOMY [5])	Pre-emergence action against LOLRI (LOLRI [6])	Post-emergence action against ECHCG (ECHCG [7])	Pre-emergence action against DIGSA (DIGSA [8])	Pre-emergence action against ALOMY (ALOMY [9])	Post-emergence action against ABUTH (ABUTH)	Pre-emergence action against SETVI (SETVI [10])	Post-emergence action against AMARE (AMARE [11])	Post-emergence action against DIGSA (DIGSA [12])	Post-emergence action against POAAN (POAAN [13])	Pre-emergence action against ECHCG (ECHCG [14])	Pre-emergence action against MATIN (MATIN [15])	Pre-emergence action against STEME (STEME [16])	Post-emergence action against VERPE (VERPE [17])	Post-emergence action against LOLRI (LOLRI [18])	Post-emergence action against SETVI (SETVI [19])	further results
O=C(COc1nn(-c2ccccc2F)c(-c2ccc(F)nc2)c1Br)NO [Example X-023]	100%	100%	100%	100%	100%	100%	100%	100%	90%	90%	100%	100%	100%	100%	100%	100%	100%	100%	100%	90%	Pre-emergence action against POAAN (POAAN [20]): 100%
CCOC(=O)COc1nn(-c2ccccc2F)c(-c2ccc(F)nc2)c1C1CC1 [VII-119]	100%	100%	100%	100%	100%	100%	100%	100%	100%	90%	100%	100%	100%	100%	100%	100%	100%	100%	100%	100%	Pre-emergence action against POAAN (POAAN [20]): 100%
